Assay results from BigSolDB 2.1.

Conditions: in water

O=S(=O)([O-])c1cccc2ccccc12.[Na+]
Conditions | solubility (mole fraction)
278.15 K | 0.0107
283.15 K | 0.0109
288.15 K | 0.0113
293.15 K | 0.0119
298.15 K | 0.0126
303.15 K | 0.0134
308.15 K | 0.0141
313.15 K | 0.0152
318.15 K | 0.0169
323.15 K | 0.0192
